Results from patent US6525001B1, “Substituted pyrimidine and pyridine herbicides” (Mid-American Commercialization Corporation, priority 1997, dated 2003).

Key:
Type in all cases: in vivo
[1] = tested on: bedstraw (Galium aparine); assay: Test B pre-/postemergence; set-up: key: 0 is no effect; 10 is complete control
Excerpt: (§1) Seeds of bedstraw (Galium aparine), blackgrass (Alopecurus myosuroides), broadleaf signalgrass (Brachiaria decumbens), cocklebur (Xanthium strumarium), corn (Zea mays), crabgrass (Digitaria sanguinalis), giant foxtail (Setaria faberii), lambsquarters (Chenopodium album), momingglory (Ipomoea hederacea), pigweed (Amaranthus retroflexus), rape (Brassica napus), soybean (Glycine max), sugar beet (Beta vulgaris), velvetleaf (Abutilon theophrasti), wheat (Triticum aestivum), wild oat (Avena fatua) and purple nutsedge (Cyperus rotundus) tubers were planted and treated preemergence with test chemicals formulated in a non-phytotoxic solvent mixture which included a surfactant.
(§2) At the same time, these crop and weed species were also treated with postemergence applications of test chemicals formulated in the same manner. Plants ranged in height from 2 to 18 cm (1- to 4-leaf stage) for postemergence treatments. Plant species in the flood test consisted of rice (Oryza sativa), smallflower flatsedge (Cyperus difformis), duck salad (Heteranthera limosa) and bamyardgrass (Echinochloa crus-galli) grown to the 2-leaf stage for testing. Treated plants and controls were maintained in a greenhouse for twelve to sixteen days, after which all species were compared to controls and visually evaluated. Plant response ratings, summarized in Table B, are based on a scale of 0 to 10 where 0 is no effect and 10 is complete control. A dash (−) response means no test result.

[2] = tested on: blackgrass (Alopecurus myosuroides); assay: Test B pre-/postemergence; set-up: key: 0 is no effect; 10 is complete control
Excerpt: as §1, §2

[3] = tested on: broadleaf signalgrass (Brachiaria decumbens); assay: Test B pre-/postemergence; set-up: key: 0 is no effect; 10 is complete control
Excerpt: as §1, §2

[4] = tested on: cocklebur (Xanthium strumarium); assay: Test B pre-/postemergence; set-up: key: 0 is no effect; 10 is complete control
Excerpt: as §1, §2

corn (Zea mays) = assay: Test B pre-/postemergence; set-up: key: 0 is no effect; 10 is complete control
Excerpt: as §1, §2

[5] = tested on: crabgrass (Digitaria sanguinalis); assay: Test B pre-/postemergence; set-up: key: 0 is no effect; 10 is complete control
Excerpt: as §1, §2

[6] = tested on: giant foxtail (Setaria faberii); assay: Test B pre-/postemergence; set-up: key: 0 is no effect; 10 is complete control
Excerpt: as §1, §2

[7] = tested on: momingglory (Ipomoea hederacea); assay: Test B pre-/postemergence; set-up: key: 0 is no effect; 10 is complete control
Excerpt: as §1, §2

[8] = tested on: pigweed (Amaranthus retroflexus); assay: Test B pre-/postemergence; set-up: key: 0 is no effect; 10 is complete control
Excerpt: as §1, §2

[9] = tested on: purple nutsedge (Cyperus rotundus); assay: Test B pre-/postemergence; set-up: key: 0 is no effect; 10 is complete control
Excerpt: as §1, §2

rape (Brassica napus) = assay: Test B pre-/postemergence; set-up: key: 0 is no effect; 10 is complete control
Excerpt: as §1, §2

soybean (Glycine max) = assay: Test B pre-/postemergence; set-up: key: 0 is no effect; 10 is complete control
Excerpt: as §1, §2

[10] = tested on: sugar beet (Beta vulgaris); assay: Test B pre-/postemergence; set-up: key: 0 is no effect; 10 is complete control
Excerpt: as §1, §2

[11] = tested on: velvetleaf (Abutilon theophrasti); assay: Test B pre-/postemergence; set-up: key: 0 is no effect; 10 is complete control
Excerpt: as §1, §2

[12] = tested on: wheat (Triticum aestivum); assay: Test B pre-/postemergence; set-up: key: 0 is no effect; 10 is complete control
Excerpt: as §1, §2

wild oat (Avena fatua) = assay: Test B pre-/postemergence; set-up: key: 0 is no effect; 10 is complete control
Excerpt: as §1, §2

[13] = tested on: bamyardgrass (Echinochloa crus-galli); assay: Test B flood test
In short: (§3)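 Read-out is a visual response score from 0 (no effect) to 10 (complete control), assigned by comparison with untreated controls. Treatment was applied at the 2-leaf stage, and plants stayed in the greenhouse for twelve to sixteen days before scoring.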

[14] = tested on: duck salad (Heteranthera limosa); assay: Test B flood test
In short: as §3

rice (Oryza sativa) = assay: Test B flood test
In short: as §3

[15] = tested on: smallflower flatsedge (Cyperus difformis); assay: Test B flood test
In short: as §3

[16] = Rate 62 g/ha, Postemergence (flood test)
[17] = Rate 125 g/ha, Postemergence, flood test
[18] = Rate 250 g/ha, Postemergence (flood test species)

Cc1cnc(-c2ccc(F)c(Cl)c2)nc1Cc1cccc(C(F)(F)F)c1 [Compound 25]
10: Plant response rating, Bedstraw ([1]; Rate 125 g/ha, Postemergence) | Plant response rating, Bedstraw ([1]; Rate 250 g/ha, Postemergence) | Plant response rating, Crabgrass ([5]; Rate 250 g/ha, Postemergence) | Plant response rating, Morningglory ([7]; Rate 62 g/ha, Postemergence) | Plant response rating, Morningglory ([7]; Rate 125 g/ha, Postemergence) | Plant response rating, Morningglory ([7]; Rate 250 g/ha, Postemergence) | Plant response rating, Morningglory ([7]; Rate 250 g/ha, Preemergence) | Plant response rating, Redroot pigweed ([8]; Rate 62 g/ha, Postemergence) | Plant response rating, Redroot pigweed ([8]; Rate 125 g/ha, Postemergence) | Plant response rating, Redroot pigweed ([8]; Rate 250 g/ha, Postemergence) | Plant response rating, Rape (rape (Brassica napus); Rate 62 g/ha, Postemergence) | Plant response rating, Rape (rape (Brassica napus); Rate 125 g/ha, Postemergence) | Plant response rating, Rape (rape (Brassica napus); Rate 250 g/ha, Postemergence) | Plant response rating, Rape (rape (Brassica napus); Rate 250 g/ha, Preemergence) | Plant response rating, Sugarbeets ([10]; Rate 62 g/ha, Postemergence) | Plant response rating, Sugarbeets ([10]; Rate 125 g/ha, Postemergence) | Plant response rating, Sugarbeets ([10]; Rate 250 g/ha, Postemergence)
6: Plant response rating, B. signalgrass ([3]; Rate 250 g/ha, Preemergence) | Plant response rating, Giant foxtail ([6]; Rate 125 g/ha, Postemergence) | Sugarbeets plant response rating ([10]; Rate 62 g/ha, Preemergence) | Plant response rating, Ducksalad [14, 18]
4: Plant response rating, Blackgrass ([2]; Rate 125 g/ha, Postemergence) | Giant foxtail plant response rating ([6]; Rate 125 g/ha, Preemergence) | Plant response rating, Soybean (soybean (Glycine max); Rate 62 g/ha, Postemergence) | Plant response rating, Wheat ([12]; Rate 125 g/ha, Postemergence) | Plant response rating, Wheat ([12]; Rate 250 g/ha, Postemergence) | Plant response rating, Wild oats (wild oat (Avena fatua); Rate 250 g/ha, Postemergence) | Plant response rating, Barnyardgrass [13, 17] | Plant response rating, Ducksalad [14, 17] | Plant response rating, Rice (rice (Oryza sativa); [17])
0: Cocklebur plant response rating ([4]; Rate 62 g/ha, Preemergence) | Cocklebur plant response rating ([4]; Rate 125 g/ha, Preemergence) | Corn plant response rating (corn (Zea mays); Rate 62 g/ha, Preemergence) | Corn plant response rating (corn (Zea mays); Rate 125 g/ha, Preemergence) | Plant response rating, Corn (corn (Zea mays); Rate 250 g/ha, Preemergence) | Crabgrass plant response rating ([5]; Rate 62 g/ha, Preemergence) | Crabgrass plant response rating ([5]; Rate 125 g/ha, Preemergence) | Nutsedge plant response rating ([9]; Rate 62 g/ha, Preemergence) | Nutsedge plant response rating ([9]; Rate 125 g/ha, Preemergence) | Plant response rating, Nutsedge ([9]; Rate 250 g/ha, Preemergence) | Soybean plant response rating (soybean (Glycine max); Rate 62 g/ha, Preemergence) | Soybean plant response rating (soybean (Glycine max); Rate 125 g/ha, Preemergence) | Velvetleaf plant response rating ([11]; Rate 62 g/ha, Preemergence) | Velvetleaf plant response rating ([11]; Rate 125 g/ha, Preemergence) | Wheat plant response rating ([12]; Rate 62 g/ha, Preemergence)
5: Blackgrass plant response rating ([2]; Rate 125 g/ha, Preemergence) | Plant response rating, Wild oats (wild oat (Avena fatua); Rate 250 g/ha, Preemergence) | Plant response rating, Barnyardgrass [13, 18] | Plant response rating, Rice (rice (Oryza sativa); [18]) | Plant response rating, S. Flatsedge [15, 17]
8: Plant response rating, Blackgrass ([2]; Rate 250 g/ha, Postemergence) | Plant response rating, Blackgrass ([2]; Rate 250 g/ha, Preemergence) | Plant response rating, Cocklebur ([4]; Rate 250 g/ha, Preemergence) | Plant response rating, Giant foxtail ([6]; Rate 250 g/ha, Postemergence) | Sugarbeets plant response rating ([10]; Rate 125 g/ha, Preemergence) | Plant response rating, Velvetleaf ([11]; Rate 62 g/ha, Postemergence)
2: Plant response rating, Bedstraw ([1]; Rate 250 g/ha, Preemergence) | Plant response rating, B. signalgrass ([3]; Rate 62 g/ha, Postemergence) | B. signalgrass plant response rating ([3]; Rate 125 g/ha, Preemergence) | Plant response rating, Corn (corn (Zea mays); Rate 125 g/ha, Postemergence) | Plant response rating, Nutsedge ([9]; Rate 250 g/ha, Postemergence) | Rape plant response rating (rape (Brassica napus); Rate 62 g/ha, Preemergence) | Plant response rating, Velvetleaf ([11]; Rate 250 g/ha, Preemergence) | Plant response rating, Wheat ([12]; Rate 62 g/ha, Postemergence) | Plant response rating, Wheat ([12]; Rate 250 g/ha, Preemergence)
7: Plant response rating, Crabgrass ([5]; Rate 62 g/ha, Postemergence) | Plant response rating, Crabgrass ([5]; Rate 125 g/ha, Postemergence) | Rape plant response rating (rape (Brassica napus); Rate 125 g/ha, Preemergence) | Plant response rating, Soybean (soybean (Glycine max); Rate 125 g/ha, Postemergence) | Plant response rating, Soybean (soybean (Glycine max); Rate 250 g/ha, Postemergence) | Plant response rating, S. Flatsedge [15, 18]
1: Bedstraw plant response rating ([1]; Rate 62 g/ha, Preemergence) | Bedstraw plant response rating ([1]; Rate 125 g/ha, Preemergence) | Blackgrass plant response rating ([2]; Rate 62 g/ha, Preemergence) | B. signalgrass plant response rating ([3]; Rate 62 g/ha, Preemergence) | Plant response rating, Corn (corn (Zea mays); Rate 62 g/ha, Postemergence) | Plant response rating, Crabgrass ([5]; Rate 250 g/ha, Preemergence) | Giant foxtail plant response rating ([6]; Rate 62 g/ha, Preemergence) | Redroot pigweed plant response rating ([8]; Rate 62 g/ha, Preemergence) | Plant response rating, Nutsedge ([9]; Rate 62 g/ha, Postemergence) | Plant response rating, Nutsedge ([9]; Rate 125 g/ha, Postemergence) | Plant response rating, Soybean (soybean (Glycine max); Rate 250 g/ha, Preemergence) | Wheat plant response rating ([12]; Rate 125 g/ha, Preemergence) | Wild oats plant response rating (wild oat (Avena fatua); Rate 62 g/ha, Preemergence)
9: Plant response rating, Bedstraw ([1]; Rate 62 g/ha, Postemergence) | Plant response rating, Cocklebur ([4]; Rate 62 g/ha, Postemergence) | Plant response rating, Cocklebur ([4]; Rate 125 g/ha, Postemergence) | Plant response rating, Cocklebur ([4]; Rate 250 g/ha, Postemergence) | Plant response rating, Giant foxtail ([6]; Rate 250 g/ha, Preemergence) | Plant response rating, Redroot pigweed ([8]; Rate 250 g/ha, Preemergence) | Plant response rating, Sugarbeets ([10]; Rate 250 g/ha, Preemergence) | Plant response rating, Velvetleaf ([11]; Rate 125 g/ha, Postemergence) | Plant response rating, Velvetleaf ([11]; Rate 250 g/ha, Postemergence)
3: Plant response rating, Blackgrass ([2]; Rate 62 g/ha, Postemergence) | Plant response rating, B. signalgrass ([3]; Rate 125 g/ha, Postemergence) | Plant response rating, B. signalgrass ([3]; Rate 250 g/ha, Postemergence) | Plant response rating, Corn (corn (Zea mays); Rate 250 g/ha, Postemergence) | Plant response rating, Giant foxtail ([6]; Rate 62 g/ha, Postemergence) | Morningglory plant response rating ([7]; Rate 62 g/ha, Preemergence) | Morningglory plant response rating ([7]; Rate 125 g/ha, Preemergence) | Redroot pigweed plant response rating ([8]; Rate 125 g/ha, Preemergence) | Plant response rating, Wild oats (wild oat (Avena fatua); Rate 62 g/ha, Postemergence) | Plant response rating, Wild oats (wild oat (Avena fatua); Rate 125 g/ha, Postemergence) | Wild oats plant response rating (wild oat (Avena fatua); Rate 125 g/ha, Preemergence) | Plant response rating, Barnyardgrass [13, 16] | Plant response rating, Ducksalad [14, 16] | Plant response rating, Rice (rice (Oryza sativa); [16]) | Plant response rating, S. Flatsedge [15, 16]
